Earlier results, collected in patent US8653094B2, “Solid forms of (S)-ethyl 2-amino-3-(4-(2-amino-6-((R)-1-(4-chloro-2-(3-methyl-1H-pyrazol-1-yl)phenyl)-2,2,2-trifluoroethoxy)-pyrimidin-4-yl)phenyl)propanoate and methods of their use” (Lexicon Pharmaceuticals, Inc., priority 2007, dated 2014).

Assays:
tryptophan hydroxylase = settings: statement in words; see U.S. patent application No. 60/874,596
[1] = tested on: peripheral serotonin levels; settings: when administered to animals; see U.S. patent application No. 60/874,596

tryptophan hydroxylase inhibition (tryptophan hydroxylase): inhibitor of tryptophan hydroxylase
Compound: CCOC(=O)[C@@H](N)Cc1ccc(-c2cc(O[C@H](c3ccc(Cl)cc3-n3ccc(C)n3)C(F)(F)F)nc(N)n2)cc1 [(S)-ethyl 2-amino-3-(4-(2-amino-6-((R)-1-(4-chloro-2-(3-methyl-1H-pyrazol-1-yl)phenyl)-2,2,2-trifluoroethoxy)pyrimidin-4-yl)phenyl)propanoate]
effect on peripheral serotonin levels [1]: decreases peripheral serotonin levels
